We go through 6 compounds from ChEMBL document CHEMBL4417631, “Oral peptide inhibitors of interleukin-23 receptor and their use to treat inflammatory bowel diseases” (2017).

Data set [1] concerns the target T1, Interleukin-23 receptor (Homo sapiens, UniProt Q5VWK5).
T1 sequence (Q5VWK5 whole entry): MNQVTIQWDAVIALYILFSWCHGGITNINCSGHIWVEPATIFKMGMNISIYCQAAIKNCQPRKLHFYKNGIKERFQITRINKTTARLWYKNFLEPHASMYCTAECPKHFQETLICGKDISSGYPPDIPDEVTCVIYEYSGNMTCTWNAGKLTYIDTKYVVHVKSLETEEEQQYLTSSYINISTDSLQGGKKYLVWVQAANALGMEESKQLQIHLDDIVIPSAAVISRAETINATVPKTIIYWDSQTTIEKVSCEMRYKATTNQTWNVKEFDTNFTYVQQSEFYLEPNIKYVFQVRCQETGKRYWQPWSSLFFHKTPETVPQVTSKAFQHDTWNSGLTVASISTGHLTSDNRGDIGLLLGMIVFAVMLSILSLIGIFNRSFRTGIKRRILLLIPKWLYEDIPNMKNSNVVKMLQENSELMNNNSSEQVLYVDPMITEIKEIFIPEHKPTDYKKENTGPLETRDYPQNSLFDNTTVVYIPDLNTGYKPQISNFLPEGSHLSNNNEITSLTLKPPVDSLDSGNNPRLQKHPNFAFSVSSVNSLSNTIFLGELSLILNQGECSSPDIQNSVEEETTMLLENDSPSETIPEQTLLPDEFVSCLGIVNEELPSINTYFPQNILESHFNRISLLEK
The data set can be described thus: Inhibition of interleukin-23 receptor in human DB cells assessed as reduction in IL-23-stimulated STAT3 phosphorylation incubated for 30 mins by HTRF assay. The data set is classed as cell-based.

Data set [2] is described as follows: Inhibition of interleukin-23 binding to rat interleukin-23 receptor incubated for 2 hrs by competitive binding ELISA.
The target of data set [3] is T1, Interleukin-23 receptor. Description: Inhibition of interleukin-23 receptor in human natural killer cells assessed as reduction in IL23/IL18-induced IFNgamma production incubated for 20 to 24 hrs by ELISA. Type of data set: cell-based. A general note: An ELISA detects its analyte on a solid surface through an enzyme-linked reagent.
Data set [4] deals with T1, Interleukin-23 receptor. Description: Inhibition of interleukin-23 binding to human interleukin-23 receptor incubated for 2 hrs by competitive binding ELISA.
Data set [5] in a line: Half life in simulated intestinal fluid at 20 uM by LC-MS/MS analysis. The data set is classed as ADME.

With `CC(=O)NCCCC[C@H](NC(=O)[C@](C)(CCCCN)NC(=O)[C@H](Cc1ccc2ccccc2c1)NC(=O)[C@H](Cc1ccc(C(N)=O)cc1)NC(=O)[C@@H](NC(=O)[C@H](CCC(N)=O)NC(=O)[C@H](Cc1c[nH]c2ccccc12)NC(=O)[C@@H](NC(=O)[C@H](CCC(N)=O)NC(=O)[C@@H](NC(C)=O)C(C)(C)S)[C@@H](C)O)C(C)(C)S)C(=O)N[C@@H](CC(N)=O)C(=O)N[C@@H](CC(N)=O)C(N)=O`, the figures for the IC50 (on Interleukin-23 receptor [1]; in data set [2]; at Interleukin-23 receptor [3]) were below 10 nM, 25 to 100 nM and below 10 nM, respectively.
For `CC(=O)N[C@H]1CCSC[C@@H](C(=O)N[C@@H](Cc2ccc(O)cc2)C(=O)N[C@@H](Cc2ccc3ccccc3c2)C(=O)N[C@@](C)(CC(C)C)C(=O)N[C@@H](CCC(=O)O)C(=O)N[C@@H](CC(N)=O)C(=O)NCC(N)=O)NC(=O)[C@H](CCC(N)=O)NC(=O)[C@H](Cc2c[nH]c3ccccc23)NC(=O)[C@H]([C@@H](C)O)NC(=O)[C@H](CCC(N)=O)NC1=O`, the IC50 at Interleukin-23 receptor [4] is 10 to 25 nM; on Interleukin-23 receptor [1], below 10 nM; in data set [2], 10 to 25 nM; at Interleukin-23 receptor [3], below 25 nM. The half-life at 20 µM in data set [5] is below 1 h.
As to `COc1ccc(C[C@H](NC(=O)[C@@H]2CSCC[C@H](NC(C)=O)C(=O)N[C@@H](CCC(N)=O)C(=O)N[C@@H]([C@@H](C)O)C(=O)N[C@@H](Cc3c[nH]c4ccccc34)C(=O)N[C@@H](CCC(N)=O)C(=O)N2)C(=O)N[C@@H](Cc2ccc3ccccc3c2)C(=O)N[C@@](C)(CCCCNC(=O)COCC(=O)NCCCC[C@](C)(NC(=O)[C@H](Cc2ccc3ccccc3c2)NC(=O)[C@H](Cc2ccc(OC)cc2)NC(=O)[C@@H]2CSCC[C@H](NC(C)=O)C(=O)N[C@@H](CCC(N)=O)C(=O)N[C@@H]([C@@H](C)O)C(=O)N[C@@H](Cc3c[nH]c4ccccc34)C(=O)N[C@@H](CCC(N)=O)C(=O)N2)C(=O)N[C@@H](CCC(=O)O)C(=O)N[C@@H](CC(N)=O)C(=O)NCC(N)=O)C(=O)N[C@@H](CCC(=O)O)C(=O)N[C@@H](CC(N)=O)C(=O)NCC(N)=O)cc1`, the IC50 at Interleukin-23 receptor [4] was below 10 nM; at Interleukin-23 receptor [1] it was below 10 nM; in data set [2], 10 to 25 nM; at Interleukin-23 receptor [3], below 25 nM.
As for `COc1ccc(C[C@H](NC(=O)[C@@H](NC(=O)[C@H](CCC(N)=O)NC(=O)[C@H](Cc2c[nH]c3ccccc23)NC(=O)[C@@H](NC(=O)[C@H](CCC(N)=O)NC(=O)[C@@H](NC(C)=O)C(C)(C)S)[C@@H](C)O)C(C)(C)S)C(=O)N[C@@H](Cc2ccc3ccccc3c2)C(=O)N[C@@](C)(CCCCN)C(=O)N[C@@H](CCCCNC(C)=O)C(=O)N[C@@H](CC(N)=O)C(=O)N[C@@H](CC(N)=O)C(N)=O)cc1`, the IC50 on Interleukin-23 receptor [1] and at Interleukin-23 receptor [3] was below 10 nM in each case.
For `COc1ccc(C[C@H](NC(=O)[C@@H](NC(=O)[C@H](CCC(N)=O)NC(=O)[C@H](Cc2c[nH]c3ccccc23)NC(=O)[C@@H](NC(=O)[C@H](CC(N)=O)NC(=O)[C@@H](NC(=O)[C@@H](Cc2ccccc2)NC(C)=O)C(C)(C)S)[C@@H](C)O)C(C)(C)S)C(=O)N[C@@H](Cc2ccc3ccccc3c2)C(=O)NC2(C(=O)N[C@@H](CCCNC(N)=O)C(=O)N[C@@H](CC(N)=O)C(=O)N[C@@H](CC(N)=O)C(N)=O)CCCCC2)cc1`, the IC50 on Interleukin-23 receptor [3] was below 10 nM.
Consider `COc1ccc(C[C@H](NC(=O)[C@H](Cc2ccc(OCCN)cc2)NC(=O)[C@@H]2CSCC[C@H](NC(C)=O)C(=O)N[C@@H](CCC(N)=O)C(=O)N[C@@H]([C@@H](C)O)C(=O)N[C@@H](Cc3c[nH]c4ccccc34)C(=O)N[C@@H](CCC(N)=O)C(=O)N2)C(=O)N[C@@](C)(CCCCN)C(=O)N[C@@H](CCCCNC(C)=O)C(=O)N[C@@H](CC(N)=O)C(=O)NCC(N)=O)cc1OC`, for which the IC50 is 10 to 25 nM on Interleukin-23 receptor [4], below 10 nM at Interleukin-23 receptor [1], 25 to 100 nM in data set [2] and below 25 nM on Interleukin-23 receptor [3].

Broadly, the IC50 is the concentration that inhibits the measured activity by half. The half-life is the time needed for the level to fall by half in the phase considered.
